{"source": "patent US5055479A", "about": "“Method of treating cachexia” (Sankyo Company, Limited, priority 1988, dated 1991)", "key": {"[1]": {"tested_on": "plasma lipoprotein lipase", "test": "Enhancement of plasma lipoprotein lipase activity in mice", "type": "in vivo, mice (Balb/c)", "conditions": "9 mg/kg via tail vein, 21 hours later", "experimental": "Female mice (Balb/c, 10 weeks old, n=6, i.e. the number in each test group was 6) were injected with 9 mg/kg of the test compound (Compound No. 1-19) via the tail vein. Twenty one hours later, the activities of the plasma lipoprotein lipase were determined according to Vlassara's method. [Horm. Metabol. Res., 18, 698-703(1986)].\nActivities of the plasma lipoprotein lipase in control mice receiving physiological saline were expressed as 100 and the relative value is shown in the following Table 5."}, "[2]": {"test": "Acute toxicity in rats, subcutaneous injection", "conditions": "rat, in vivo, sc", "text": "(§1) All of the compounds of formula (I) employed in the present invention have shown low toxicity and high safety, with limited side effects."}, "[3]": {"tested_on": "tumor cells, adenocarcinoma C-12G", "test": "Improving cachexia and increasing life-span of tumor bearing mice", "type": "in vivo, mouse (CSF1)", "text": "A mouse cachexia model was made by inoculating 6×10^5 viable tumor cells, adenocarcinoma C-12G, subcutaneously into the right axillary region of a CSF1 mouse (8-9 weeks old, female weighing 21-24 g, n=10). The viable tumor cells were counted under a microscope after staining them with 0.4% of trypan blue (Sigma Co.).\nThe growth of this kind of tumor, inoculated subcutaneously, causes a marked Weight loss (the weight losses of mice 16-17 days after tumor inoculation were (4.0-4.5 g), piloerection and depression of emotion and finally death.\nCompound No. 1-19 (hereafter called the test compound) was suspended in saline containing 0.5% CMC (carboxymethyl cellulose) at a concentration of 4 mg/ml. The suspension was administrated orally to mice on days 1-4, 7-11, 14-24 (20 times in total) after the tumor inoculation. The status of the mice, such as weight loss. Piloerection, depression of emotion and increase in life-span, was observed.\nOn the other hand, for a control group of mice, saline solution containing 0.5% of CMC was given orally.\nIn the above, the median survival times were measured in days."}, "[4]": {"test": "Acute toxicity in mice, intraperitoneal injection", "conditions": "mouse, in vivo, ip", "text": "as §1"}}}
{"smiles": "Cc1nc2ncnn2c2c1CCN2C(C)(C)C", "note": "[Compound 1-19, 8-t-butyl-7,8-dihydro-5-methyl-6H-pyrrolo[3,2-e][1,2,4]triazolo[1,5-a]pyrimidine]", "values": [{"measurement": "lipoprotein lipase activity relative to control", "setting": "[1]; of that of the control", "value": 120, "unit": "%"}, {"measurement": "Relative activity of the lipoprotein lipase", "setting": "[1]; saline control = 100, n = 6, mean ± standard deviation, p<0.05 vs saline", "value": "120 ± 10.6"}, {"measurement": "LD50", "setting": "[2]", "value": "≥ 100", "unit": "mg/kg"}, {"measurement": "Median Survival time", "setting": "[3]; 40 mg/kg/day orally, days 1-4, 7-11, 14-24, control 28.0", "value": 40.5, "unit": "days"}, {"measurement": "Increase in life-span (ILS)", "setting": "[3]; 40 mg/kg/day orally, days 1-4, 7-11, 14-24, vs control", "value": 45, "unit": "%"}, {"measurement": "status of the mice (weight, hair retention and emotion)", "setting": "[3]; oral administration, 20 times in total", "value": "extensive improvements in weight, hair retention and emotion"}]}
{"smiles": "Cc1ccc(CN2CCc3c(C)nc4ncnn4c32)cc1", "note": "[Compound 1-48, 7,8-dihydro-5-methyl-8-(4-methylbenzyl)-6H-pyrrolo[3,2-e][1,2,4]triazolo[1,5-a]pyrimidine]", "values": [{"measurement": "LD50", "setting": "[4]", "value": "≥ 300", "unit": "mg/kg"}]}
{"smiles": "COc1ccc(CN2CCc3c(C)nc4ncnn4c32)cc1", "note": "[Compound 1-49, 7,8-dihydro-8-(4-methoxybenzyl)-5-methyl-6H-pyrrolo[3,2-e][1,2,4]triazolo[1,5-a]pyrimidine]", "values": [{"measurement": "LD50", "setting": "[4]", "value": "≥ 300", "unit": "mg/kg"}]}
{"smiles": "Cc1nc2ncnn2c2c1CCN2Cc1ccc(Cl)cc1", "note": "[Compound 1-54, 8-(4-chlorobenzyl)-7,8-dihydro-5-methyl-6H-pyrrolo[3,2-e][1,2,4]triazolo[1,5-a]pyrimidine]", "values": [{"measurement": "LD50", "setting": "[4]", "value": "≥ 300", "unit": "mg/kg"}]}
{"smiles": "Cc1nc2ccnn2c2c1CCN2Cc1ccccc1", "note": "[Compound 2-2, 8-benzyl-7,8-dihydro-5-methyl-6H-pyrazolo[1,5-a]pyrrolo[3,2-e]pyrimidine]", "values": [{"measurement": "LD50", "setting": "[4]", "value": "≥ 300", "unit": "mg/kg"}]}
